Values after ≈ are worked out from the molar mass of the structure shown. Read-outs that look alike come from different tables or passages of the source. Peptide text beside a SMILES is read from it.
What was measured:
[1] = tested on: G(−) bacteria (five species); test: MIC growth inhibition assay, average over G(−) species; format: cell-based; settings: average of the average MICs of five G(−) species, ± spread
Procedure: (§1) Bacterial clinical isolates used for initial screening were anonymously provided by the clinical microbiology laboratory of the University of Pittsburgh Medical Center (UPMC). Bacteria were stored at −80 °C and typically retrieved by obtaining single colonies on agar plates prior to subsequent liquid broth culture. Suspensions of test bacteria were prepared from the log phase of growth by diluting overnight cultures at 1:100 with fresh cation-adjusted Mueller–Hinton Broth (MHB2) and incubating for an additional 3–4 h. Bacteria were spun at 3000 g for 10 min. The pellet was resuspended in Test Condition Media to determine bacterial turbidity using a Den-1B densitometer (Grant Instruments, Beaver Falls, PA) at 0.5 McFarland units corresponding to 10^8 CFU/mL.
(§2) To examine antibacterial activity, we used minor modifications of a standard growth inhibition assay endorsed by the Clinical and Laboratory Standards Institute (CLSI), as previously described.[13] Bacteria were incubated with each of the indicated peptides in MHB2. The bacterial cells were kept in an incubator for 18 h at 37 °C, which is linked to a robotic system that feeds a plate reader every hour with one of 8 × 96-well plates. The 96-well plates are standard flat-bottom microliter plates purchased from Thermo Fisher (Waltham, MA). This setup allows the collection of growth kinetic data at A 570 (absorbance at 570 nm) to examine growth inhibition in real-time (BioTek Instruments, Winooski, VT). […] The assays are typically repeated a second time. If the MIC differs from the first assay, a third experimental trial is performed to confirm the MIC.

[2] = tested on: Acinetobacter baumannii (AB78, AB83, AB273, AB275); test: microbe, parasite or virus in culture; format: cell-based
Procedure: as §1, §2

[3] = tested on: Staphylococcus aureus (SA703, SA722, SA729); test: microbe, parasite or virus in culture; format: cell-based
Procedure: as §1, §2

[4] = tested on: Klebsiella pneumoniae (KP106, KP506, KP542, KP550); test: microbe, parasite or virus in culture; format: cell-based
Procedure: as §1, §2

[5] = tested on: Escherichia coli (EC541, EC543, EC546, EC549); test: microbe, parasite or virus in culture; format: cell-based
Procedure: as §1, §2

[6] = tested on: Enterobacter (EA62, EC544, EC547, EA1042); test: MIC growth inhibition assay, Enterobacter clinical isolates; format: cell-based; settings: average of four strains, MHB2, 18 h, 37 °C, A570 growth curves, read-out: MIC G(−) Entbac
Procedure: as §1, §2

[7] = tested on: G(+) bacteria (two species); test: MIC growth inhibition assay, average over G(+) species; format: cell-based; settings: average of the average MICs of two G(+) species, ± spread
Procedure: as §1, §2

[8] = tested on: Enterococci (EF500, EF678, EF679, EF787); test: organism not typed; format: cell-based; settings: read-out: MIC G(+) Entcoc
Procedure: as §1, §2

[9] = tested on: Pseudomonas aerginosa (PA231, PA235, PA239, PA249); test: MIC growth inhibition assay, Pseudomonas aeruginosa clinical isolates; format: cell-based; settings: average of four strains, MHB2, 18 h, 37 °C, A570 growth curves
Procedure: as §1, §2

[10] = tested on: Staphylococcus hemolyticus 730; test: microbe, parasite or virus in culture; format: cell-based; settings: for MIC after 1-Hr AB incubation / MIC after 1-Hr NE digestion / MIC after 4-Hr AB incubation / MIC after 4-Hr NE digestion: pH 8; for MIC: then MIC vs Staphylococcus hemolyticus 730
Procedure: One motivation in designing linear or cyclic AMPs is to prevent proteolytic degradation that can occur with helical peptides. […] Linezolid, a conventional antibiotic was included for comparison.
as §2
The neutrophil elastase was dissolved in 200 mmol/L Tris buffer, pH 8.8, and used at a molar ratio of 1:50 with the peptide in 200 mM ammonium bicarbonate pH 8.0 for 1 or 4 h. The control experiment incubated the peptides alone in 200 mmol/L ammonium bicarbonate for 1 or 4 h. Upon completion of the incubations, the peptides were serially diluted to test MIC. 50% (v/v) MHB2 was added to the plates. MIC was determined as described above.

[11] = tested on: human red blood cells (RBCs); settings: cited from earlier work
Source text: Table 2 Antibacterial Activity and Toxicity of CE-03, LE-53, CE-05 and LE-55 Peptides ^a | column: % toxicity / RBC || The secondary structure of AMPs as they encounter membranes may correlate with their toxicity; it has long been thought that helical peptides are more toxic to eukaryotic cells than nonhelical peptides. Our group has found a positive correlation between helicity and toxicity for WLBU2,[18] the E2-peptides,[28] and SPLUNC1-derived antimicrobial peptides.[34] We have also seen the converse, that nonhelical peptides are nontoxic,[18],[26] supporting the positive correlation between helicity and toxicity. Several literature studies have also found a correlation between α-helicity and toxicity to e ...

[12] = average of four strains, MHB2, 18 h, 37 °C, A570 growth curves
[13] = KP106, KP506, KP542, KP550, 18 h
[14] = EC541, EC543, EC546, EC549, 18 h

colistin
MIC G(−) average [1]: 5.2 ± 4.3 µM | MIC [2, 12]: 0.5 µM | MIC ([3]; average of strains SA703, SA722, SA729, MHB2, 18 h, 37 °C, A570 growth curves): 64.0 µM | MIC [4, 12]: 0.7 µM | MIC [5, 12]: 4.3 µM | MIC [6]: 12.1 µM | MIC G(+) average [7]: 48.0 ± 23.0 µM | MIC [8, 12]: 32.0 µM | MIC [9]: 8.4 µM

CC(C)[C@@H]1NC(=O)[C@H](Cc2c[nH]c3ccccc23)NC(=O)[C@H](Cc2c[nH]c3ccccc23)NC(=O)[C@H](Cc2c[nH]c3ccccc23)NC(=O)[C@H](Cc2c[nH]c3ccccc23)NC(=O)[C@H](CCCNC(=N)N)NC(=O)[C@H](CCCNC(=N)N)NC(=O)[C@H](CCCNC(=N)N)NC(=O)[C@H](CCCNC(=N)N)NC(=O)[C@H](CCCNC(=N)N)NC(=O)[C@H](CCCNC(=N)N)NC(=O)[C@H](CCCNC(=N)N)NC(=O)[C@H](CCCNC(=N)N)NC(=O)[C@H](C(C)C)NC(=O)[C@H](C(C)C)NC(=O)[C@H](C(C)C)NC1=O [CE-05] (cyclo(RRRRRRRRWWWWVVVV))
MIC G(−) average [1]: 3.9 ± 1.1 µM (≈ 9.32 µg/mL) | MIC ([2]; AB78, AB83, AB273, AB275, 18 h): 1.1 µM (≈ 2.63 µg/mL) | MIC ([3]; SA703, SA722, SA729, 18 h): 1.0 µM (≈ 2.39 µg/mL) | MIC [4, 13]: 6.7 µM (≈ 16 µg/mL) | MIC [5, 14]: 2.5 µM (≈ 5.98 µg/mL) | MIC [6]: 3.2 µM (≈ 7.65 µg/mL) | MIC after 1-Hr AB incubation [10]: 6.0 ± 2.8 µM (≈ 14.3 µg/mL) | MIC after 1-Hr NE digestion [10]: 3.0 ± 1.4 µM (≈ 7.17 µg/mL) | MIC after 4-Hr AB incubation [10]: 4.0 ± 0 µM (≈ 9.56 µg/mL) | MIC after 4-Hr NE digestion [10]: 3.0 ± 1.4 µM (≈ 7.17 µg/mL) | MIC [9]: 6.1 µM (≈ 14.6 µg/mL)

CC(C)[C@H](NC(=O)[C@@H](NC(=O)[C@@H](NC(=O)[C@@H](NC(=O)[C@H](Cc1c[nH]c2ccccc12)NC(=O)[C@H](Cc1c[nH]c2ccccc12)NC(=O)[C@H](Cc1c[nH]c2ccccc12)NC(=O)[C@H](Cc1c[nH]c2ccccc12)NC(=O)[C@H](CCCNC(=N)N)NC(=O)[C@H](CCCNC(=N)N)NC(=O)[C@H](CCCNC(=N)N)NC(=O)[C@H](CCCNC(=N)N)NC(=O)[C@H](CCCNC(=N)N)NC(=O)[C@H](CCCNC(=N)N)NC(=O)[C@H](CCCNC(=N)N)NC(=O)[C@@H](N)CCCNC(=N)N)C(C)C)C(C)C)C(C)C)C(=O)O [LE-55] (H-RRRRRRRRWWWWVVVV-OH)
toxicity (in words) [11]: nontoxic | MIC after 1-Hr AB incubation [10]: 16.0 ± 0 µM (≈ 38.5 µg/mL) | MIC after 1-Hr NE digestion [10]: 3.0 ± 1.4 µM (≈ 7.23 µg/mL) | MIC after 4-Hr AB incubation [10]: 6.0 ± 2.8 µM (≈ 14.5 µg/mL) | MIC after 4-Hr NE digestion [10]: 3.0 ± 1.4 µM (≈ 7.23 µg/mL)

CC(C)[C@@H]1NC(=O)[C@H](Cc2c[nH]c3ccccc23)NC(=O)[C@H](Cc2c[nH]c3ccccc23)NC(=O)[C@H](Cc2c[nH]c3ccccc23)NC(=O)[C@H](Cc2c[nH]c3ccccc23)NC(=O)[C@H](CCCNC(=N)N)NC(=O)[C@H](CCCNC(=N)N)NC(=O)[C@H](CCCNC(=N)N)NC(=O)[C@H](CCCNC(=N)N)NC(=O)[C@H](CCCNC(=N)N)NC(=O)[C@H](CCCNC(=N)N)NC(=O)[C@H](C(C)C)NC1=O [CE-03] (cyclo(RRRRRRWWWWVV))
MIC G(−) average [1]: 4.6 ± 1.3 µM (≈ 8.65 µg/mL) | MIC ([2]; AB78, AB83, AB273, AB275, 18 h): 2.2 µM (≈ 4.14 µg/mL) | MIC ([3]; SA703, SA722, SA729, 18 h): 2.3 µM (≈ 4.32 µg/mL) | MIC [4, 13]: 8.2 µM (≈ 15.4 µg/mL) | MIC [5, 14]: 1.5 µM (≈ 2.82 µg/mL) | MIC [6]: 3.7 µM (≈ 6.96 µg/mL) | MIC G(+) average [7]: 1.6 ± 0.7 µM (≈ 3.01 µg/mL) | MIC after 1-Hr AB incubation [10]: 1.0 ± 0.0 µM (≈ 1.88 µg/mL) | MIC after 1-Hr NE digestion [10]: 1.5 ± 0.7 µM (≈ 2.82 µg/mL) | MIC after 4-Hr AB incubation [10]: 1.0 ± 0 µM (≈ 1.88 µg/mL) | MIC after 4-Hr NE digestion [10]: 1.0 ± 0 µM (≈ 1.88 µg/mL) | MIC ([8]; 18 h): 0.9 µM (≈ 1.69 µg/mL) | MIC [9]: 7.1 µM (≈ 13.3 µg/mL)

CC(C)[C@H](NC(=O)[C@@H](NC(=O)[C@H](Cc1c[nH]c2ccccc12)NC(=O)[C@H](Cc1c[nH]c2ccccc12)NC(=O)[C@H](Cc1c[nH]c2ccccc12)NC(=O)[C@H](Cc1c[nH]c2ccccc12)NC(=O)[C@H](CCCNC(=N)N)NC(=O)[C@H](CCCNC(=N)N)NC(=O)[C@H](CCCNC(=N)N)NC(=O)[C@H](CCCNC(=N)N)NC(=O)[C@H](CCCNC(=N)N)NC(=O)[C@@H](N)CCCNC(=N)N)C(C)C)C(=O)O [LE-53] (H-RRRRRRWWWWVV-OH)
toxicity (in words) [11]: nontoxic | MIC after 1-Hr AB incubation [10]: 2.0 ± 0 µM (≈ 3.8 µg/mL) | MIC after 1-Hr NE digestion [10]: 2.0 ± 0 µM (≈ 3.8 µg/mL) | MIC after 4-Hr AB incubation [10]: 3.0 ± 1.4 µM (≈ 5.69 µg/mL) | MIC after 4-Hr NE digestion [10]: 1.5 ± 0.7 µM (≈ 2.85 µg/mL)

NC[C@H]1O[C@H](O[C@H]2[C@H](O)[C@@H](O[C@H]3O[C@H](CO)[C@@H](O)[C@H](N)[C@H]3O)[C@H](N)C[C@@H]2N)[C@H](N)C[C@@H]1O [tobramycin]
MIC [1]: 23.7 ± 3.4 µM (≈ 11.1 µg/mL) | MIC ([2]; Acinetobacter baumannii, average of four strains, MHB2, 18 h, 37 °C, A570 growth curves): 32 µM (≈ 15 µg/mL) | MIC ([3]; Staphylococcus aureus, average of strains SA703, SA722, SA729, MHB2, 18 h, 37 °C, A570 growth curves): 13.1 µM (≈ 6.12 µg/mL) | MIC ([4]; Klebsiella pneumoniae, average of four strains, MHB2, 18 h, 37 °C, A570 growth curves): 2.1 µM (≈ 0.982 µg/mL) | MIC ([5]; Escherichia coli, average of four strains, MHB2, 18 h, 37 °C, A570 growth curves): 28 µM (≈ 13.1 µg/mL) | MIC ([6]; Enterobacter): 24.5 µM (≈ 11.5 µg/mL) | MIC [7]: 19 ± 1 µM (≈ 8.88 µg/mL) | MIC [8, 12]: 25 µM (≈ 11.7 µg/mL) | MIC ([9]; Pseudomonas): 32 µM (≈ 15 µg/mL)

CC(=O)NC[C@H]1CN(c2ccc(N3CCOCC3)c(F)c2)C(=O)O1 [linezolid]
MIC ([10]; control: peptide alone in 200 mmol/L ammonium bicarbonate pH 8.0, 1 h, read-out: MIC after 1-Hr AB incubation): > 16 µM | MIC ([10]; control: peptide alone in 200 mmol/L ammonium bicarbonate pH 8.0, 4 h, read-out: MIC after 4-Hr AB incubation): > 16 µM | MIC ([10]; human neutrophil elastase, molar ratio 1:50 with peptide, 200 mM ammonium bicarbonate pH 8.0, 1 h, read-out: MIC after 1-Hr NE digestion): > 16 µM | MIC ([10]; human neutrophil elastase, molar ratio 1:50 with peptide, 200 mM ammonium bicarbonate pH 8.0, 4 h, read-out: MIC after 4-Hr NE digestion): > 16 µM

From publication PMC11904707, “Cyclization of Two Antimicrobial Peptides Improves Their Activity” (ACS Omega, 2025)
